Measured values published in US20180072997A1, “INHIBITORS OF HUMAN IMMUNODEFICIENCY VIRUS REPLICATION” (ViiV HEATHCARE UK (NO.5) LIMITED, priority 2015, published 2018).

Experiments:
[1] = tested on: recombinant NL4-3 virus (Renilla luciferase in nef) in MT-2 cells; test: whole plant or invertebrate; type: cell-based, HIV; conditions: Renilla, NL43, MT-2 cells infected for 4-5 days with recombinant NL4-3 Renilla luciferase virus; luciferase activity
Procedure: HIV cell culture assay—MT-2 cells, 293T cells and the proviral DNA clone of NL4-3 virus were obtained from the NIH AIDS Research and Reference Reagent Program. MT-2 cells were propagated in RPMI 1640 media supplemented with 10% heat inactivated fetal bovine serum (FBS), 100 μg/ml penicillin G and up to 100 units/mL streptomycin. The 293T cells were propagated in DMEM media supplemented with 10% heat inactivated FBS, 100 μg/mL penicillin G and 100 μg/mL streptomycin. A recombinant NL4-3 proviral clone, in which a section of the nef gene was replaced with the Renilla luciferase gene, was used to make the reference virus used in these studies. The recombinant virus was prepared through transfection of the recombinant NL4-3 proviral clone into 293T cells using Transit-293 Transfection Reagent from Mirus Bio LLC (Madison, Wis.). Supernatent was harvested after 2-3 days and the amount of virus present was titered in MT-2 cells using luciferase enzyme activity as a marker by measuring luciferase enzyme activity. Luciferase was quantitated using the EnduRen Live Cell Substrate from Promega (Madison, Wis.). Antiviral activities of compounds toward the recombinant virus were quantified by measuring luciferase activity in MT-2 cells infected for 4-5 days with the recombinant virus in the presence of serial dilutions of the compound.
(Johnson V A, Byington R T. Infectivity Assay. In Techniques in HIV Research. ed. Aldovini A, Walker BD. 71-76. New York: Stockton Press.1990).

[2] = Compound cytotoxicity, XTT-based colorimetric assay; type: cell-based; conditions: human, uninfected MT2 cells, day 4, XTT
Procedure: Compound cytotoxicity and the corresponding CC50 values were determined using the same protocol as described in the antiviral assay except that uninfected cells were used. Cytotoxicity was assessed on day 4 in uninfected MT2 cells by using a XTT (2,3-bis[2-Methoxy-4-nitro-5-sulfophenyl]-2H-tetrazolium-5-carboxyanilide inner salt)-based colorimetric assay (Sigma-Aldrich, St Louis, Mo.).

## COc1ccc(N(C)C(=O)[C@H](Cc2ccccc2)NC(=O)/C=C\C(=O)N[C@@H](Cc2ccccc2)C(=O)N(C)c2ccc(OC)cc2)cc1 [Example 80]
[1]
  EC50: 0.16 µM
[2]
  CC50 at 4 days: 12.8 µM

## CN(C(=O)[C@H](Cc1cc(F)cc(F)c1)NC(=O)c1cccc(C(=O)N[C@@H](Cc2cc(F)cc(F)c2)C(=O)N(C)c2ccc3scnc3c2)c1Cl)c1ccc2scnc2c1 [Example 82]
[1]
  EC50: 0.07 µM
[2]
  CC50 at 4 days: ≥ 100 µM

## COc1ccc(N(C)C(=O)[C@H](Cc2ccccc2)NC(=O)Cn2c(=O)n(CC(=O)N[C@@H](Cc3ccccc3)C(=O)N(C)c3ccc(OC)cc3)c3cc(OC)ccc32)cc1 [Example 83]
[1]
  EC50: 0.09 µM
[2]
  CC50 at 4 days: 6.2 µM

## COc1ccc(N(C)C(=O)[C@H](Cc2cc(F)cc(F)c2)NC(=O)Cn2c(=O)n(CC(=O)N[C@@H](Cc3cc(F)cc(F)c3)C(=O)N(C)c3ccc(OC)cc3)c3cc(OC)ccc32)cc1 [Example 84]
[1]
  EC50: 0.04 µM
[2]
  CC50 at 4 days: 6.9 µM

## CN(C(=O)[C@H](Cc1ccccc1)NC(=O)NS(=O)(=O)N[C@@H](Cc1ccccc1)C(=O)N(C)c1ccccc1)c1ccccc1 [Example 85]
[1]
  EC50: 0.97 µM
[2]
  CC50 at 4 days: ≥ 100 µM

## CN(C(=O)[C@H](Cc1cc(F)cc(F)c1)NC(=O)NS(=O)(=O)N[C@@H](Cc1cc(F)cc(F)c1)C(=O)N(C)c1ccccc1)c1ccccc1 [Example 86]
[1]
  EC50: 0.09 µM
[2]
  CC50 at 4 days: 24.5 µM

## COc1ccc(N(C)C(=O)[C@H](Cc2ccccc2)NC(=O)Cn2c(=O)n(CC(=O)N[C@@H](Cc3ccccc3)C(=O)N(C)c3ccc(OC)cc3)c3cc([N+](=O)[O-])ccc32)cc1 [Example 87]
[1]
  EC50: 0.09 µM
[2]
  CC50 at 4 days: 11.1 µM

## COc1ccc(N(C)C(=O)[C@H](Cc2cc(F)cc(F)c2)Nc2ncc(-c3cnc(N[C@@H](Cc4cc(F)cc(F)c4)C(=O)N(C)c4ccc(OC)cc4)nc3)cn2)cc1 [Example 88]
[1]
  EC50: 13.7 µM
[2]
  CC50 at 4 days: 20.8 µM

## COc1ccc(N(C)C(=O)[C@H](Cc2ccccc2)NC(=O)Cn2c(=O)n(CC(=O)N[C@@H](Cc3ccccc3)C(=O)N(C)c3ccc(OC)cc3)c3cc(N)ccc32)cc1 [Example 90]
[1]
  EC50: 0.34 µM
[2]
  CC50 at 4 days: 22.7 µM

## COc1ccc(N(C)C(=O)[C@H](Cc2ccccc2)NC(=O)Cn2c(=O)c3ccccc3c(=O)n2CC(=O)N[C@@H](Cc2ccccc2)C(=O)N(C)c2ccc(OC)cc2)cc1 [Example 92]
[1]
  EC50: 0.29 µM
[2]
  CC50 at 4 days: 10.1 µM

## COc1ccc(N(C)C(=O)[C@H](Cc2cc(F)cc(F)c2)NC(=O)Cn2c(=O)c3ccccc3c(=O)n2CC(=O)N[C@@H](Cc2cc(F)cc(F)c2)C(=O)N(C)c2ccc(OC)cc2)cc1 [Example 93]
[1]
  EC50: 0.09 µM
[2]
  CC50 at 4 days: 5.7 µM

## COc1ccc(N(C)C(=O)[C@H](Cc2ccccc2)NC(=O)Cn2c(=O)c(=O)n(CC(=O)N[C@@H](Cc3ccccc3)C(=O)N(C)c3ccc(OC)cc3)c3ccccc32)cc1 [Example 94]
[1]
  EC50: 0.16 µM
[2]
  CC50 at 4 days: 23.2 µM

## COc1ccc(N(C)C(=O)[C@H](Cc2ccccc2)NC(=O)COc2nc3ccccc3n(CC(=O)N[C@@H](Cc3ccccc3)C(=O)N(C)c3ccc(OC)cc3)c2=O)cc1 [Example 95]
[1]
  EC50: 0.21 µM
[2]
  CC50 at 4 days: ≥ 50 µM

## COc1ccc(N(C)C(=O)[C@H](Cc2cc(F)cc(F)c2)NC(=O)COc2nc3ccccc3n(CC(=O)N[C@@H](Cc3cc(F)cc(F)c3)C(=O)N(C)c3ccc(OC)cc3)c2=O)cc1 [Example 96]
[1]
  EC50: 0.12 µM
[2]
  CC50 at 4 days: ≥ 50 µM

## COc1ccc(N(C)C(=O)[C@H](Cc2ccccc2)NC(=O)Cn2c(=O)n(CC(=O)N[C@@H](Cc3ccccc3)C(=O)N(C)c3ccc(OC)cc3)c3cc(NC(C)=O)ccc32)cc1 [Example 97]
[1]
  EC50: 2.6 µM
[2]
  CC50 at 4 days: ≥ 100 µM

## COc1ccc(N(C)C(=O)[C@H](Cc2cc(F)cc(F)c2)NC(=O)Cn2c(=O)c(=O)n(CC(=O)N[C@@H](Cc3cc(F)cc(F)c3)C(=O)N(C)c3ccc(OC)cc3)c3ccccc32)cc1 [Example 98]
[1]
  EC50: 0.03 µM
[2]
  CC50 at 4 days: 11.2 µM

## COc1ccc(N(C)C(=O)[C@H](Cc2ccccc2)NC(=O)c2cncc(C(=O)N[C@@H](Cc3ccccc3)C(=O)N(C)c3ccc(OC)cc3)c2)cc1 [Example 99]
[1]
  EC50: 0.02 µM
[2]
  CC50 at 4 days: 1.8 µM

## COc1ccc(N(C)C(=O)[C@H](Cc2ccccc2)NC(=O)Cn2c(=O)c3ccccc3n(CC(=O)N[C@@H](Cc3ccccc3)C(=O)N(C)c3ccc(OC)cc3)c2=O)cc1 [Example 100]
[1]
  EC50: 0.07 µM
[2]
  CC50 at 4 days: ≥ 100 µM

## COc1ccc(N(C)C(=O)[C@H](Cc2cc(F)cc(F)c2)NC(=O)Cn2c(=O)c3ccccc3n(CC(=O)N[C@@H](Cc3cc(F)cc(F)c3)C(=O)N(C)c3ccc(OC)cc3)c2=O)cc1 [Example 101]
[1]
  EC50: 0.03 µM
[2]
  CC50 at 4 days: ≥ 100 µM

## COc1ccc(N(C)C(=O)[C@H](Cc2ccccc2)NC(=O)c2cc(C)cc(C(=O)N[C@@H](Cc3ccccc3)C(=O)N(C)c3ccc(OC)cc3)c2)cc1 [Example 102]
[1]
  EC50: 0.05 µM
[2]
  CC50 at 4 days: ≥ 33.3 µM

## COc1ccc(N(C)C(=O)[C@H](Cc2ccccc2)NC(=O)c2cc(C(=O)N[C@@H](Cc3ccccc3)C(=O)N(C)c3ccc(OC)cc3)cc(C(C)(C)C)c2)cc1 [Example 103]
[1]
  EC50: 0.15 µM
[2]
  CC50 at 4 days: ≥ 33.3 µM

## COc1ccc(N(C)C(=O)[C@H](Cc2ccccc2)NC(=O)[C@H](C)NC(=O)N[C@@H](C)C(=O)N[C@@H](Cc2ccccc2)C(=O)N(C)c2ccc(OC)cc2)cc1 [Example 104]
[1]
  EC50: 0.13 µM
[2]
  CC50 at 4 days: 31 µM

## COc1ccc(N(C)C(=O)[C@H](Cc2ccccc2)NC(=O)c2ccnc(C(=O)N[C@@H](Cc3ccccc3)C(=O)N(C)c3ccc(OC)cc3)c2)cc1 [Example 105]
[1]
  EC50: 0.68 µM
[2]
  CC50 at 4 days: 3.1 µM

## COc1ccc(N(C)C(=O)[C@H](Cc2ccccc2)NC(=O)c2ccc(F)c(C(=O)N[C@@H](Cc3ccccc3)C(=O)N(C)c3ccc(OC)cc3)c2)cc1 [Example 106]
[1]
  EC50: 0.05 µM
[2]
  CC50 at 4 days: 6.3 µM

## CN(C(=O)[C@H](Cc1cc(F)cc(F)c1)NC(=O)c1cccc(S(=O)(=O)N[C@@H](Cc2cc(F)cc(F)c2)C(=O)N(C)c2ccc3scnc3c2)c1)c1ccc2scnc2c1 [Example 107]
[1]
  EC50: 0.3 µM
[2]
  CC50 at 4 days: ≥ 100 µM

## COc1ccc(N(C)C(=O)[C@H](Cc2ccccc2)NC(=O)c2cccc(S(=O)(=O)N[C@@H](Cc3ccccc3)C(=O)N(C)c3ccc(OC)cc3)c2)cc1 [Example 108]
[1]
  EC50: 0.72 µM
[2]
  CC50 at 4 days: ≥ 100 µM

## COc1ccc(N(C)C(=O)[C@H](Cc2ccccc2)Nc2ncnc(N[C@@H](Cc3ccccc3)C(=O)N(C)c3ccc(OC)cc3)n2)cc1 [Example 109]
[1]
  EC50: 6.87 µM
[2]
  CC50 at 4 days: 65.4 µM

## COc1ccc(N(C)C(=O)[C@H](Cc2ccccc2)NC(=O)c2cc(Br)cc(C(=O)N[C@@H](Cc3ccccc3)C(=O)N(C)c3ccc(OC)cc3)c2)cc1 [Example 110]
[1]
  EC50: 0.21 µM
[2]
  CC50 at 4 days: ≥ 100 µM

## COc1ccc(N(C)C(=O)[C@H](Cc2ccccc2)NC(=O)c2cncc(C(=O)N[C@@H](Cc3ccccc3)C(=O)N(C)c3ccc(OC)cc3)n2)cc1 [Example 111]
[1]
  EC50: 0.96 µM
[2]
  CC50 at 4 days: ≥ 100 µM

## COc1ccc(N(C)C(=O)[C@H](Cc2ccccc2)NC(=O)c2cc(C(=O)N[C@@H](Cc3ccccc3)C(=O)N(C)c3ccc(OC)cc3)ncn2)cc1 [Example 112]
[1]
  EC50: 1.71 µM
[2]
  CC50 at 4 days: 1.3 µM

## COc1ccc(N(C)C(=O)[C@H](Cc2ccccc2)NC(=O)c2cc(C(=O)N[C@@H](Cc3ccccc3)C(=O)N(C)c3ccc(OC)cc3)n(C)n2)cc1 [Example 115]
[1]
  EC50: 2.13 µM
[2]
  CC50 at 4 days: ≥ 100 µM

## COc1ccc(N(C)C(=O)[C@H](Cc2ccccc2)NC(=O)c2cc(C(=O)N[C@@H](Cc3ccccc3)C(=O)N(C)c3ccc(OC)cc3)on2)cc1 [Example 116]
[1]
  EC50: 0.71 µM
[2]
  CC50 at 4 days: 1.5 µM

## COc1ccc(N(C)C(=O)[C@H](Cc2ccccc2)NC(=O)/C=C/CC(=O)N[C@@H](Cc2ccccc2)C(=O)N(C)c2ccc(OC)cc2)cc1 [Example 117]
[1]
  EC50: 0.64 µM
[2]
  CC50 at 4 days: 30.8 µM

## CN(C(=O)[C@H](Cc1cc(F)cc(F)c1)NC(=O)Cn1c(=O)n(CC(=O)N[C@@H](Cc2cc(F)cc(F)c2)C(=O)N(C)c2ccc3scnc3c2)c2ccccc21)c1ccc2scnc2c1 [Example 119]
[1]
  EC50: 0.01 µM
[2]
  CC50 at 4 days: ≥ 100 µM

## C=CCN(C(=O)[C@H](Cc1cc(F)cc(F)c1)NC(=O)NS(=O)(=O)N[C@@H](Cc1cc(F)cc(F)c1)C(=O)N(CC=C)c1ccc(OC)cc1)c1ccc(OC)cc1 [Example 120]
[1]
  EC50: 0.26 µM
[2]
  CC50 at 4 days: 23.3 µM

## C=CCCN(C(=O)[C@H](Cc1cc(F)cc(F)c1)NC(=O)NS(=O)(=O)N[C@@H](Cc1cc(F)cc(F)c1)C(=O)N(CCC=C)c1ccc(OC)cc1)c1ccc(OC)cc1 [Example 121]
[1]
  EC50: 0.73 µM
[2]
  CC50 at 4 days: 18.8 µM

## COc1ccc(N(CCF)C(=O)[C@H](Cc2cc(F)cc(F)c2)NC(=O)CN2c3ccccc3N(CC(=O)N[C@@H](Cc3cc(F)cc(F)c3)C(=O)N(CCF)c3ccc(OC)cc3)S2(=O)=O)cc1 [Example 122]
[1]
  EC50: 0.09 µM
[2]
  CC50 at 4 days: ≥ 100 µM
